Source: patent publication US20100041089A1, “IMPROVED METHOD FOR DETECTING CHEMICAL […]” (priority 2006, published 2010)

Test system: yeast genes (expressed mRNA)
Test: DNA chip measurement of expressed mRNA of yeast genes after culture with a toxic chemical substance
Type: cell-based, Saccharomyces cerevisiae S288C
Settings: for level of expressed mRNA in the presence of chemical substance / level in the absence of chemical substance: cultured two hours with the chemical substance; for The level of expressed mRNA in the presence of chemical substance/The level of expressed mRNA in the absence of chemical substance: cultured two hours with substance
Method: Yeast (Saccharomyces cerevisiae S288C (a SUC2mal mel gap2 CUP1)) were cultured at 25° C. on YPD medium (yeast extract 1%, polypeptone 2%, glucose 2%). One of toxic chemical substances was added to the cell at logarithmic growth phase, and the cell was further cultured for two hours. Cell was cultured without any chemical substance in the same condition, and was used as a control. Concentrations of the chemical substances were defined to inhibit the growth of the yeast but not lead to death.
After the completion of cultivation, the culture was centrifuged to collect the cells. To the cells, sodium acetate buffer (50 mM sodium acetate, 10 mM EDTA, 1% SDS) was added, and the mixture was shaken at 65° C. for five minutes, followed by returning to room temperature, and obtaining the supernatant, which procedure was repeated two times. To the supernatant, ½ amount of a solution of phenol/chloroform (1:1) was added, and the mixture was centrifuged to give a supernatant, an equal amount of chloroform was added, and the mixture was centrifuged to give a supernatant. To the supernatant, an equal amount of isopropanol containing 0.3 M sodium acetate was added, and the mixture was allowed to stand at room temperature for 30 minutes, after which the mixture was centrifuged to give sediment of the whole RNAs. Seventy % ethanol was added to the sediment, and the mixture was again centrifuged to give sediment, which was then dried and dissolved in water. mRNA was isolated from the whole RNAs as followings. In view of the fact that a poly A chain is attached to the 3′ terminus of mRNA, a polynucleotide having a poly T structure which was immobilized on the surface of latex beads was used to trap the mRNA, and then the mRNA was washed and eluted with spine column (Oligotex-dT30<Super>mRNA Purification Kit, Takara). Reverse transcription of the mRNA was conducted with a reverse transcriptase (Super Script II Reverse Transcriptase; catalogue No. 18064-014, GibcoBRL) using fluorescence-labeled nucleotides to give cDNAs that were introduced with Cy3-dUTP or Cy5-dUTP during the reverse transcription.
The labeled cDNAs were dissolved in TE buffer (10 mM Tris-HCl/1 mM EDTA, pH 8.0), and the solution was dropped on the DNA chip containing the whole genes of yeast (DNA Chip Research Inc. Japan) so that the cDNAs were hybridized on the DNA chip at 65° C. for over 12 hours. The fluoresces intensity of the DNA chip was read with a scanner, and the ratio relative to the fluorescence intensity resulting from the absence of chemical substance was estimated as the following, which is shown in Tables 1 to 9.
In the Tables, “Intensity” indicated in the rightmost column is a value of the level of expressed mRNA of each gene in control cells as divided by the average level of the expressions of the whole genes. A gene of which mRNA level is lower in control, and is higher in cases of addition of chemical substance, is especially useful in the detection of toxic substances.
Here, when a ratio of an amount of mRNA expressed in the presence of the chemical substance to an amount of mRNA expressed in the absence of the chemical substance is two or more, then it is considered significant.

Q: [Cl][Cd][Cl] [(2), CdCl2] was tested. Which “level of expressed mRNA in the presence of chemical substance / level in the absence of chemical substance” value (yeast gene YDR128W) did it give?
A: 3.9

Q: What about the “level of expressed mRNA in the presence of chemical substance / level in the absence of chemical substance” value (yeast gene YDR133C) of the same compound?
A: 1.1

Q: And the “level of expressed mRNA in the presence of chemical substance / level in the absence of chemical substance” value (yeast gene YDR250C)?
A: 1.4

Q: What about the “level of expressed mRNA in the presence of chemical substance / level in the absence of chemical substance” value (yeast gene YDR278C) of the same compound?
A: 3.2

Q: And the “level of expressed mRNA in the presence of chemical substance / level in the absence of chemical substance” value (yeast gene YDR281C)?
A: 2.6

Q: What about the “The level of expressed mRNA in the presence of chemical substance/The level of expressed mRNA in the absence of chemical substance” value (yeast gene YDR330W) of the same compound?
A: 1.5

Q: And the “level of expressed mRNA in the presence of chemical substance / level in the absence of chemical substance” value (yeast gene YDR366C)?
A: 2.0

Q: What about the “The level of expressed mRNA in the presence of chemical substance/The level of expressed mRNA in the absence of chemical substance” value (yeast gene YDR411C) of the same compound?
A: 2.8

Q: And the “The level of expressed mRNA in the presence of chemical substance/The level of expressed mRNA in the absence of chemical substance” value (yeast gene YDR511W)?
A: 1.7

Q: And the “The level of expressed mRNA in the presence of chemical substance/The level of expressed mRNA in the absence of chemical substance” value (yeast gene YDR545W)?
A: 1.2

Q: What about the “The level of expressed mRNA in the presence of chemical substance/The level of expressed mRNA in the absence of chemical substance” value (yeast gene YEL001C) of the same compound?
A: 1.0

Q: And the “The level of expressed mRNA in the presence of chemical substance/The level of expressed mRNA in the absence of chemical substance” value (yeast gene YER004W)?
A: 1.5

Q: What about the “The level of expressed mRNA in the presence of chemical substance/The level of expressed mRNA in the absence of chemical substance” value (yeast gene YER035W) of the same compound?
A: 1.6

Q: What about the “The level of expressed mRNA in the presence of chemical substance/The level of expressed mRNA in the absence of chemical substance” value (yeast gene YER079W) of the same compound?
A: 1.6

Q: What about the “The level of expressed mRNA in the presence of chemical substance/The level of expressed mRNA in the absence of chemical substance” value (yeast gene YER106W) of the same compound?
A: 0.7

Q: What about the “The level of expressed mRNA in the presence of chemical substance/The level of expressed mRNA in the absence of chemical substance” value (yeast gene YER158C) of the same compound?
A: 0.9

Q: What about the “The level of expressed mRNA in the presence of chemical substance/The level of expressed mRNA in the absence of chemical substance” value (yeast gene YER163C) of the same compound?
A: 2.4

Q: And the “The level of expressed mRNA in the presence of chemical substance/The level of expressed mRNA in the absence of chemical substance” value (yeast gene YER175C)?
A: 1.2

Q: And the “The level of expressed mRNA in the presence of chemical substance/The level of expressed mRNA in the absence of chemical substance” value (yeast gene YFL006W)?
A: 2.8

Q: And the “The level of expressed mRNA in the presence of chemical substance/The level of expressed mRNA in the absence of chemical substance” value (yeast gene YFL010C)?
A: 4.8

Q: What about the “The level of expressed mRNA in the presence of chemical substance/The level of expressed mRNA in the absence of chemical substance” value (yeast gene YFL024C) of the same compound?
A: 1.1

Q: And the “The level of expressed mRNA in the presence of chemical substance/The level of expressed mRNA in the absence of chemical substance” value (yeast gene YFL032W)?
A: 1.5

Q: And the “level of expressed mRNA in the presence of chemical substance / level in the absence of chemical substance” value (yeast gene YFR026C)?
A: 2.0

Q: And the “The level of expressed mRNA in the presence of chemical substance/The level of expressed mRNA in the absence of chemical substance” value (yeast gene YGL037C)?
A: 2.7

Q: What about the “The level of expressed mRNA in the presence of chemical substance/The level of expressed mRNA in the absence of chemical substance” value (yeast gene YGL047W) of the same compound?
A: 1.9

Q: And the “The level of expressed mRNA in the presence of chemical substance/The level of expressed mRNA in the absence of chemical substance” value (yeast gene YGL053W)?
A: 1.5

Q: What about the “level of expressed mRNA in the presence of chemical substance / level in the absence of chemical substance” value (yeast gene YGL088W) of the same compound?
A: 2.1

Q: What about the “The level of expressed mRNA in the presence of chemical substance/The level of expressed mRNA in the absence of chemical substance” value (yeast gene YGL121C) of the same compound?
A: 5.0

Q: And the “The level of expressed mRNA in the presence of chemical substance/The level of expressed mRNA in the absence of chemical substance” value (yeast gene YGL199C)?
A: 1.7

Q: What about the “level of expressed mRNA in the presence of chemical substance / level in the absence of chemical substance” value (yeast gene YGR038W) of the same compound?
A: 1.2

Q: And the “The level of expressed mRNA in the presence of chemical substance/The level of expressed mRNA in the absence of chemical substance” value (yeast gene YGR101W)?
A: 1.3

Q: What about the “The level of expressed mRNA in the presence of chemical substance/The level of expressed mRNA in the absence of chemical substance” value (yeast gene YGR110W) of the same compound?
A: 3.1

Q: And the “The level of expressed mRNA in the presence of chemical substance/The level of expressed mRNA in the absence of chemical substance” value (yeast gene YGR130C)?
A: 0.7

Q: What about the “level of expressed mRNA in the presence of chemical substance / level in the absence of chemical substance” value (yeast gene YGR139W) of the same compound?
A: 3.7

Q: And the “The level of expressed mRNA in the presence of chemical substance/The level of expressed mRNA in the absence of chemical substance” value (yeast gene YGR154C)?
A: 2.9

Q: What about the “The level of expressed mRNA in the presence of chemical substance/The level of expressed mRNA in the absence of chemical substance” value (yeast gene YGR221C) of the same compound?
A: 2.2

Q: What about the “level of expressed mRNA in the presence of chemical substance / level in the absence of chemical substance” value (yeast gene YGR243W) of the same compound?
A: 2.2

Q: And the “level of expressed mRNA in the presence of chemical substance / level in the absence of chemical substance” value (yeast gene YGR293C)?
A: 1.9

Q: What about the “level of expressed mRNA in the presence of chemical substance / level in the absence of chemical substance” value (yeast gene YHL006C) of the same compound?
A: 1.4

Q: What about the “level of expressed mRNA in the presence of chemical substance / level in the absence of chemical substance” value (yeast gene YHR095W) of the same compound?
A: 2.6

Q: And the “level of expressed mRNA in the presence of chemical substance / level in the absence of chemical substance” value (yeast gene YHR105W)?
A: 0.8

Q: And the “The level of expressed mRNA in the presence of chemical substance/The level of expressed mRNA in the absence of chemical substance” value (yeast gene YHR138C)?
A: 1.8

Q: And the “level of expressed mRNA in the presence of chemical substance / level in the absence of chemical substance” value (yeast gene YHR181W)?
A: 0.7

Q: What about the “The level of expressed mRNA in the presence of chemical substance/The level of expressed mRNA in the absence of chemical substance” value (yeast gene YHR199C) of the same compound?
A: 2.0

Q: And the “The level of expressed mRNA in the presence of chemical substance/The level of expressed mRNA in the absence of chemical substance” value (yeast gene YIL023C)?
A: 1.2

Q: And the “The level of expressed mRNA in the presence of chemical substance/The level of expressed mRNA in the absence of chemical substance” value (yeast gene YIL041W)?
A: 1.2

Q: What about the “The level of expressed mRNA in the presence of chemical substance/The level of expressed mRNA in the absence of chemical substance” value (yeast gene YIL087C) of the same compound?
A: 1.9

Q: And the “level of expressed mRNA in the presence of chemical substance / level in the absence of chemical substance” value (yeast gene YIL127C)?
A: 4.8

Q: And the “level of expressed mRNA in the presence of chemical substance / level in the absence of chemical substance” value (yeast gene YJL017W)?
A: 1.7

Q: What about the “level of expressed mRNA in the presence of chemical substance / level in the absence of chemical substance” value (yeast gene YJL037W) of the same compound?
A: 1.4

Q: And the “The level of expressed mRNA in the presence of chemical substance/The level of expressed mRNA in the absence of chemical substance” value (yeast gene YJL057C)?
A: 1.2

Q: What about the “The level of expressed mRNA in the presence of chemical substance/The level of expressed mRNA in the absence of chemical substance” value (yeast gene YJL066C) of the same compound?
A: 1.2

Q: And the “The level of expressed mRNA in the presence of chemical substance/The level of expressed mRNA in the absence of chemical substance” value (yeast gene YJL082W)?
A: 0.8
